The values that follow come from US20100120778A1, “QUINOXALINE-BASED LXR MODULATORS” (Wyeth, priority 2008, published 2010).

Structures are written as SMILES. Like-named read-outs stand apart in the source and are kept apart here.

As usually defined, the IC50 is the concentration that inhibits the measured activity by half. A word on the EC50: it is the concentration at which the effect is half-maximal.

One assay addresses T1, human LXRβ (Homo sapiens, UniProt P55055).
T1 construct: biotin (biotinylated); made in house; host or cells: E. coli
T1 sequence (P55055 1-460): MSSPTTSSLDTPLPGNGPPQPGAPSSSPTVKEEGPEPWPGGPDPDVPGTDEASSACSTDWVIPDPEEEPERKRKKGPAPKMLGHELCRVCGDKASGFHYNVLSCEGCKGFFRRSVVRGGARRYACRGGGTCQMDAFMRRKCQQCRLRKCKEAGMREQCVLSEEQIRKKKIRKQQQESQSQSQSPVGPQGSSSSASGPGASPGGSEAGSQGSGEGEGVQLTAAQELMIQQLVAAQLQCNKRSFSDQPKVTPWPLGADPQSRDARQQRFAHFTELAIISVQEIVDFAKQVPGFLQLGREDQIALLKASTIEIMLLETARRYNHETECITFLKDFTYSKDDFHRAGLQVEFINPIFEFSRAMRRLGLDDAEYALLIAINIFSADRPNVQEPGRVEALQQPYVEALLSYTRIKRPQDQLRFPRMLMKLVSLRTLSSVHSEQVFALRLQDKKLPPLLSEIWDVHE
Description: Ligand-binding test procedure for human LXRβ (3H T0901317 tracer, flash plates). The conditions noted are these: biotinylated hLXRβ, tracer 3H T0901317, +4° C. over night.

For the next assay, the target named is T2, human LXRα (Homo sapiens, UniProt Q13133).
T2 construct: biotin (biotinylated); made in house; host or cells: E. coli
T2 sequence (Q13133 1-447): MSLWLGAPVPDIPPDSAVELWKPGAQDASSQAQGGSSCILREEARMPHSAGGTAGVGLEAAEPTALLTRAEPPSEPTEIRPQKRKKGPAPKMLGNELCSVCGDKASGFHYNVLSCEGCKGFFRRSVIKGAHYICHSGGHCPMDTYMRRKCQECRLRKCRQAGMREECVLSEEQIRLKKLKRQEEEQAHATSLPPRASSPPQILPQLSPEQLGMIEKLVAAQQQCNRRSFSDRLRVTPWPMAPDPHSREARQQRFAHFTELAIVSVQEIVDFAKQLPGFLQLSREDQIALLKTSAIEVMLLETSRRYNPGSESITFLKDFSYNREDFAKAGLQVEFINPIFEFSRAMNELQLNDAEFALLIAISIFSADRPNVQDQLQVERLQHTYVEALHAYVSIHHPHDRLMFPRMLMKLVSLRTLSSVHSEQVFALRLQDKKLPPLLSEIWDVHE
Briefly: Ligand-binding test procedure for human LXRα (3H T0901317 tracer, flash plates). The conditions noted are these: biotinylated hLXRα, tracer 3H T0901317, +4° C. over night. The method, then: II. Ligand-Binding Test Procedure for Human LXRα.
Receptor source: E. coli extract from cells expressing biotinylated hLXRα. Extract was made in a similar buffer as above, but with 50 mM TRIS.
Washed streptavidin and coated flash plates with wash buffer. Diluted receptor extract to give Bmax˜4000 cpm and add to the wells. Wrapped the plates in aluminum foil and stored them at +4° C. over night.
Made a dilution series in DMSO of the test ligands. Made a 5 nM solution of the radioactive tracer in buffer. Mixed 250 μl diluted tracer with 5 μl of the test ligand from each concentration of the dilution series. Washed the receptor-coated flash plates. Added 200 μl per well of the ligand/radiolabel mixture to the receptor-coated flash plates. Wrapped the plates in aluminum foil and incubate at +4° C. over night.
Aspirated wells, and wash the flashed plates. Sealed the plate. Measured the remaining radioactivity in the plate.

For assay [1], the system named is ABCA1 gene (regulation by LXR) in THP-1 cells. Description: Quantitative analysis of ABCA1 gene regulation in THP-1 cells (real-time RT-PCR). Format: cell-based, human. The conditions noted are these: for Agonism ABCA1: LXR agonist reference at 1.0 uM as positive control; for EC50: Homo sapiens, read-out: EC50 ABCA1. On the procedure:
III. Quantitative Analysis of ABCA1 Gene Regulation In THP-1 Cells. The compounds of formula (I) effect on the regulation of the ABCA1 gene was evaluated using the following procedure. Materials and Methods Cell culture: The THP-1 monocytic cell line (ATCC # TIB-202) was obtained from American Type Culture Collection (Manassas, Va.) and cultured in RPMI 1640 medium (Gibco, Carlsbad, Calif.) containing 10% FBS, 2 mM L-glutamine, and 55 uM beta-Mercaptoethanol (BME). […] Louis, Mo.) for three days to induce differentiation into adherent macrophages. Differentiated THP-1 cells were treated with test compounds or ligands dissolved in DMSO (Sigma, D-8779) in culture medium lacking phorbal ester. […] Dose response effects were measured in duplicate, in the range of 0.001 to 30 micromolar concentrations and treated cells were incubated for an additional 18 hrs prior to RNA isolation. Unstimulated cells treated with vehicle were included as negative controls on each plate. […] L., J. Med. Chem. (2000), 45:1963-1966.). Results of antagonist analysis are expressed as % antagonism and IC50 (in μM). RNA isolation and quantitation: Total cellular RNA was isolated from treated cells cultured in 96-well plates using PrepStation 6100 (Applied Biosystems, Foster City, Calif.), according to the manufacturer's recommendations. RNA was resuspended in ribonuclease-free water and stored at -70° C. prior to analysis. RNA concentrations were quantitated with RiboGreen test procedure, #R-11490 (Molecular Probes, Eugene, Oreg.). Gene expression analysis: Gene-specific mRNA quantitation was performed by real-time PCR with the Perkin Elmer Corp. chemistry on an ABI Prism 7700 Sequence detection system (Applied Biosystems, Foster City, Calif.) according to the manufacturer's instructions. Samples (50-100 ng) of total RNA were assayed in duplicate or triplicate in 50 μl reactions using one-step RT-PCR and the standard curve method to estimate specific mRNA concentrations. Sequences of gene-specific primer and probe sets were designed with Primer Express Software (Applied Biosystems, Foster City, Calif.). The human ABCA1 primer and probe sequences are: forward, [NT], reverse, [NT], and probe, 6[…] and PCR reactions were performed according to PE Applied Biosystem's protocol for Taqman Gold RT-PCR or Qiagen's protocol for Quantitect probe RT-PCR. Relative levels of ABCA1 mRNA are normalized using GAPDH mRNA or 18S rRNA probe/primer sets purchased commercially (Applied Biosystems, Foster City, Calif.). Statistics: Mean, standard deviation and statistical significance of duplicate evaluations of RNA samples were assessed using ANOVA, one-way analysis of variance using SAS analysis.

[2] abbreviates: Gene regulation by LXR (THP1), differentiated THP-1 cells, 18 hrs.
Setting [3] is: Gene regulation by LXR (THP1), differentiated THP-1 cells, 18 hrs, ABCA1 mRNA.

For the molecule `Cc1nc2c(C(F)(F)F)cccc2nc1-c1ccc(-c2cccc(S(C)(=O)=O)c2)cc1` [Example 1, 3-methyl-2-[3′-(methylsulfonyl)biphenyl-4-yl]-5-(trifluoromethyl)quinoxaline], the values for the IC50 at human LXRβ and on human LXRα were 0.049 µM and 0.752 µM, respectively. Also, the “Agonism ABCA1” value in assay [1] (setting [2]) amounted to 79%. In addition, in assay [1] (setting [3]), the EC50 amounted to 1.09 µM.
Take `CCS(=O)(=O)c1cccc(-c2ccc(-c3nc4cccc(C(F)(F)F)c4nc3C)cc2)c1` [Example 31, 2-[3′-(ethylsulfonyl)biphenyl-4-yl]-3-methyl-5-(trifluoromethyl)quinoxaline]: the IC50 at human LXRα is 0.265 µM. The “Agonism ABCA1” value in assay [1] (setting [2]) is 65%. Moreover, in assay [1] (THP-1, 18 h), the EC50 is 0.89 µM.
For `CNS(=O)(=O)c1cccc(-c2ccc(-c3nc4cccc(C(F)(F)F)c4nc3C)cc2)c1` [Example 53, N-methyl-4′-[3-methyl-5-(trifluoromethyl)quinoxalin-2-yl]biphenyl-3-sulfonamide], the IC50 at human LXRα is > 1 µM. The “Agonism ABCA1” value in assay [1] (setting [2]) came out at 55%. Moreover, the EC50 in assay [1] (THP-1, 18 h) was determined as 1.4 µM.
For `Cc1nc2c(C(F)(F)F)cccc2nc1-c1cc(Oc2cccc(S(=O)(=O)CCCC#N)c2)ccc1Cl` [Example 77, 4-[(3-{4-chloro-3-[3-methyl-5-(trifluoromethyl)quinoxalin-2-yl]phenoxy}phenyl)sulfonyl]-butanenitrile], the IC50 on human LXRβ was determined as 0.128 µM; at human LXRα it was 0.405 µM. For the same molecule, the “Agonism ABCA1” value in assay [1] (setting [2]) came to 45%. Further, the EC50 in assay [1] (setting [3]) is 4.42 µM.
For `Cc1nc2c(Cl)cccc2nc1Oc1ccc(-c2cccc(NS(C)(=O)=O)c2)cc1` [Example 93, N-{4′-[(5-chloro-3-methylquinoxalin-2-yl)oxy]biphenyl-3-yl}methanesulfonamide], the IC50 came to 0.869 µM at human LXRβ and 3.53 µM at human LXRα.
